According to ChEMBL document CHEMBL1201862, “PubChem BioAssay data set” (2004):
Activity calls are given as the source filed them.

Experiments:
Coagulation factor XII = target: T1, Coagulation factor XII (Homo sapiens, UniProt P00748); experiment: Factor XIIa Dose Response Confirmation from Single Well HTS. [Related pubchem assays (depositor defined):AID701]; assay type: functional
T1 sequence (P00748 whole entry): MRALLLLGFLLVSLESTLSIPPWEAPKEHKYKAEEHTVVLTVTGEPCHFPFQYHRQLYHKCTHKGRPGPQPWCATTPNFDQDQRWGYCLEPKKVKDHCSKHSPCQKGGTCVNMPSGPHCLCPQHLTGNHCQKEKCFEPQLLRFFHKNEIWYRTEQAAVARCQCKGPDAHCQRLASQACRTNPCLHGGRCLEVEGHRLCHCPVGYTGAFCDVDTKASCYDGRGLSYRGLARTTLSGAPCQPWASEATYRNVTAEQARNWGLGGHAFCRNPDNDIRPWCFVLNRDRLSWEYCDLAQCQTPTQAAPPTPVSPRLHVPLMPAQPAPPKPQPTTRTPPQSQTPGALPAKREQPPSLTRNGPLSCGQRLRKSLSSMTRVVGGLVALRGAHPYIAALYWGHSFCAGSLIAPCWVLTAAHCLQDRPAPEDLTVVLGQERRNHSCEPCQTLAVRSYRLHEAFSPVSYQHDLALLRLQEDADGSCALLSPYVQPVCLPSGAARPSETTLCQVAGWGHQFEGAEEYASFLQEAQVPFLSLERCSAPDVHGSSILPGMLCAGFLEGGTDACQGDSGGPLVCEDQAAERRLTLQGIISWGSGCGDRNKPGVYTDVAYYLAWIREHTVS

[1] = tested on: Streptococcus sp. 'group A'; experiment: growth inhibition of control SK(-) GAS strain, dose response, counter-screen for streptokinase expression inhibitor project, luminescence, kanamycin, BacTiterGlo, confirmation (AID 1900); assay type: functional, organism-based
Streptococcus = experiment: Group A Streptococcus viability loss, dose response, counter-screen for streptokinase expression inhibitor project, luminescence, BacTiterGlo (AID 1915); assay type: functional, organism-based;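 further: potency for reduction of bacterial viability or growth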
[2] = target: T2, Intestinal-type alkaline phosphatase (Homo sapiens, UniProt P09923); experiment: Dose Response confirmation of uHTS hits from a small molecule inhibitors of human intestinal alkaline phosphatase via a luminescent assay. [Related pubchem assays (depositor defined):AID2544, AID2574]; assay type: functional
[3] = target: T2, Intestinal-type alkaline phosphatase; experiment: human intestinal alkaline phosphatase activators, dose response, biochemical, luminescence, uHTS hits (AID 463120); assay type: functional
Hexokinase HKDC1 = target: T3, Hexokinase HKDC1 (Homo sapiens, UniProt Q2TB90); experiment: HKDC1 hexokinase activators, dose response, biochemical, W721R variant (AID 504730); assay type: functional
T3 sequence (Q2TB90 whole entry): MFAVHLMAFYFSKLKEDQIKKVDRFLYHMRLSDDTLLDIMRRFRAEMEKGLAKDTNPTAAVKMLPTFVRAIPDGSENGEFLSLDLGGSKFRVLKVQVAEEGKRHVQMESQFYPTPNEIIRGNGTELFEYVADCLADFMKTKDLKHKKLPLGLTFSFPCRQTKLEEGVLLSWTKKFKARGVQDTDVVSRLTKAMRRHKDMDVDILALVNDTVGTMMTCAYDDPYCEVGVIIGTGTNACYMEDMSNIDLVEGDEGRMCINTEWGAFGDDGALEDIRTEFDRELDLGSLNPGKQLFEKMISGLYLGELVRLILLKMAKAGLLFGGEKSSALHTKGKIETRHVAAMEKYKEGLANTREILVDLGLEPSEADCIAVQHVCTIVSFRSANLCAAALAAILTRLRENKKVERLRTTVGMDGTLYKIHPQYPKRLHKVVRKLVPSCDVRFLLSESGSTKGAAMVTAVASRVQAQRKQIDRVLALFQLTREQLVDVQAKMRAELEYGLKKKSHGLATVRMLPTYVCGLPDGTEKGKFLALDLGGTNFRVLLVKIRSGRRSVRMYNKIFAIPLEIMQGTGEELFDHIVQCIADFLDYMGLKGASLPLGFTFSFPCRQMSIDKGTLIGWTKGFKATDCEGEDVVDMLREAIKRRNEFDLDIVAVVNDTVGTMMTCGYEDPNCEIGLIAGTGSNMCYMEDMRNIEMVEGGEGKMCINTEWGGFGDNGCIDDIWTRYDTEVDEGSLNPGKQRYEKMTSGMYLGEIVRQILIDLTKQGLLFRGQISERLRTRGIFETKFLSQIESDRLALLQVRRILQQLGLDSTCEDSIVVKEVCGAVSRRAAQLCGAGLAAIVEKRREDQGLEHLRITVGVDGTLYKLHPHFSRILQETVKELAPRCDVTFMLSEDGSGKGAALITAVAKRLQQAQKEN

Hexokinase-1 = Hexokinase-1 (Homo sapiens, UniProt P19367); experiment: hexokinase 1 activators, dose response, selectivity assay for HKDC1 activator project, biochemical (AID 504762); assay type: functional
[4] = target: T4, Dual specificity protein phosphatase 3 (Homo sapiens, UniProt P51452); experiment: VHR1 phosphatase inhibitors, primary screen, biochemical, absorbance, uHTS (AID 1654)
[5] = target: T4, Dual specificity protein phosphatase 3; experiment: VHR1 phosphatase inhibitors, biochemical (AID 1878)
[6] = target: T5, Dual specificity protein phosphatase 6 (Rattus norvegicus, UniProt Q64346); experiment: MKP-3 phosphatase inhibitors, primary screen, biochemical, rat enzyme, in vitro (AID 425)
T5 sequence (Q64346 whole entry): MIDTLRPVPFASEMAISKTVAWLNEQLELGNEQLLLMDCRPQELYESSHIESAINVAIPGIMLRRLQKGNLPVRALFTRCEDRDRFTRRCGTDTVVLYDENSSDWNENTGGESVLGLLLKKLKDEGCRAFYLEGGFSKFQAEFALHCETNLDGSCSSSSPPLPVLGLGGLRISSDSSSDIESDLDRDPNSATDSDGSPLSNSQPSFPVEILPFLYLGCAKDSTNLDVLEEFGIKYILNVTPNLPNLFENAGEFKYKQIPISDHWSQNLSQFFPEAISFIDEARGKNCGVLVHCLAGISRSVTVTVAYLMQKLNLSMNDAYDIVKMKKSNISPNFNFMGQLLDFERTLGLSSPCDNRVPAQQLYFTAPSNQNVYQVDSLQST

T4 sequence (P51452 whole entry): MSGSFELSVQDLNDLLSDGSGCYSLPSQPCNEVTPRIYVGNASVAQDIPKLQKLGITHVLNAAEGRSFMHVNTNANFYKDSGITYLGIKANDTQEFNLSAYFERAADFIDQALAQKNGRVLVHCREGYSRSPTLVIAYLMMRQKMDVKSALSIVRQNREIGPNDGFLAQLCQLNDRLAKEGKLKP
T2 sequence (P09923 whole entry): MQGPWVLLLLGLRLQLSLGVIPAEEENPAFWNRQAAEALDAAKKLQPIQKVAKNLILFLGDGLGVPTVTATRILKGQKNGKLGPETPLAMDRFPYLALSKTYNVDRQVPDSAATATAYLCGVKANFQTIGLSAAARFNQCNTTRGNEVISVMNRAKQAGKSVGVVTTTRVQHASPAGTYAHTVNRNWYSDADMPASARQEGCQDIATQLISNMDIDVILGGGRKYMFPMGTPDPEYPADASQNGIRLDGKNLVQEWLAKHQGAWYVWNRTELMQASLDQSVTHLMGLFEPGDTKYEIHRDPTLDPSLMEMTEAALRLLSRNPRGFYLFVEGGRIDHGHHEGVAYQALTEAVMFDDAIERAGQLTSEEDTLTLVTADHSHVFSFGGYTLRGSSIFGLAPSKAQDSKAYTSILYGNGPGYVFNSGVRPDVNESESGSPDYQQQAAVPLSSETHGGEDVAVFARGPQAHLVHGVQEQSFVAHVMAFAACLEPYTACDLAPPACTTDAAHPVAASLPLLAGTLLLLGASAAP
Hexokinase-1, sequence (P19367 whole entry): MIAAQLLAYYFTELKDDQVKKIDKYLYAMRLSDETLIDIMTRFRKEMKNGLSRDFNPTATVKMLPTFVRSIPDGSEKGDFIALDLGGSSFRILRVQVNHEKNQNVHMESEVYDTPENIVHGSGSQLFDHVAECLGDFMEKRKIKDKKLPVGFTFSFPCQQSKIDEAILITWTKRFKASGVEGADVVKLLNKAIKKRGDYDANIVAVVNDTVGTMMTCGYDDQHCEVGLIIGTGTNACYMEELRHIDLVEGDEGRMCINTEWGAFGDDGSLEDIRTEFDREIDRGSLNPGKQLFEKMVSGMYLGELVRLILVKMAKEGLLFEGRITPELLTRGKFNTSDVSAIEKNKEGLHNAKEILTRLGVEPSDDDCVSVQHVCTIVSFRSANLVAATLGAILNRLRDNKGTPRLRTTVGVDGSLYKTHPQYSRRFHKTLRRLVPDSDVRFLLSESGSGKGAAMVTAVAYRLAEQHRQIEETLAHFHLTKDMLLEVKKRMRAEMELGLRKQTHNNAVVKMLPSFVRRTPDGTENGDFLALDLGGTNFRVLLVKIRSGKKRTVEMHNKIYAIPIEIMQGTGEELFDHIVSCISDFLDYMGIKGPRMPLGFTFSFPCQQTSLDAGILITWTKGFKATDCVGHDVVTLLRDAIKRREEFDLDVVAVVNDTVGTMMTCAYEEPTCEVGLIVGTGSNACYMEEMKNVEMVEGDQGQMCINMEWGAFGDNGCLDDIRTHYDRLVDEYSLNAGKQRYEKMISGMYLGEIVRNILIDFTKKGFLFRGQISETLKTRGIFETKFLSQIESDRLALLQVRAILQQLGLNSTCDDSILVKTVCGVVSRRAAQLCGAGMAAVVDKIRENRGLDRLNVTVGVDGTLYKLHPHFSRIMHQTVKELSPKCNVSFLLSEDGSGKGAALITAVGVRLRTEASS

## O=C(Oc1ccc(Cl)c2cccnc12)c1ccco1
Coagulation factor XII
  IC50: 21.6 µM (active)
[1]
  EC50: 3.93 µM (active)
Streptococcus
  EC50: 11.6 µM (active)

## COc1cccc(-c2nc(CS(=O)(=O)CC(=O)Nc3cc(OC)ccc3OC)c(C)o2)c1
[2]
  IC50: > 100 µM (inactive)
[3]
  EC50: > 100 µM (inactive)

## Cn1c(-c2ccccc2)c(C(=O)CC#N)c2ccccc21
Hexokinase HKDC1
  EC50: 39.2 µM (inactive)
Hexokinase-1
  EC50: 32 µM (inactive)

## O=C(O)c1cc(-c2ccc(/C=c3\sc4nc5ccc(Br)cc5n4c3=O)o2)ccc1Cl
[4]
  IC50: 3.97 µM (active)
[5]
  IC50: 1.42 µM (active)
[6]
  IC50: 12 µM (active)
